Measurements: US5759577A, “Controlled release of steroids from sugar coatings” (American Home Products Corporation, priority 1996, dated 1998)

Legend:
[1] = in vitro dissolution of medrogestone, USP XX <711> Apparatus 2, 50 r.p.m.; assay type: physicochemical; settings: sugar coat containing 0.4% microcrystalline cellulose versus conventional tablet
Procedure: A sugar coating containing 5 mg of medrogestone in a matrix of sucrose with 0.4% microcrystalline cellulose and 0.5% polyvinyl pyrrolidone was applied to a sealed and sugar-coated tablet core.

[2] = in vitro dissolution of steroid, Method A (USP XX <711> Apparatus 2, 50 rpm); assay type: physicochemical; settings: Examples 1-3, Methods A, B and C, no microcrystalline cellulose
From the text: CV represents the coefficient of variation between these trials expressed as a percentage.

Row | Structure (SMILES) | dissolution of medrogestone (in words) [1] | release from the sugar coating (in words) [2]
1 | CC(=O)[C@@]1(C)CC[C@H]2[C@@H]3C=C(C)C4=CC(=O)CC[C@]4(C)[C@H]3CC[C@@]21C [medrogestone] | dramatic effect of reduced dissolution | 
2 | CC(=O)O[C@]1(C(C)=O)CC[C@H]2[C@@H]3C[C@H](C)C4=CC(=O)CC[C@]4(C)[C@H]3CC[C@@]21C [medroxyprogesterone acetate] |  | released from the sugar coating extremely rapidly
